Activity calls are given as the source filed them. No cut-off for these calls is given here.
Columns and labels:
Mus musculus [1] = assay: Neurotoxicity in albino CF1 mouse at 100 mg/kg, ip measured after 0.25 hr; type: toxicity, organism-based; parameters: dose 100 mg/kg, route intraperitoneal; settings: in vivo
Mus musculus [2] = assay: Anticonvulsant activity in albino CF1 mouse assessed as protection against subcutaneous metrazol-induced seizures at 100 mg/kg, ip measured after 0.25 hr; type: functional, organism-based; parameters: dose 100 mg/kg
Mus musculus [3] = assay: Anticonvulsant activity in albino CF1 mouse assessed as protection against 32 mA current-induced seizures at 100 mg/kg, ip measured after 0.5 hr; type: functional, organism-based; parameters: dose 100 mg/kg
Mus musculus [4] = assay: Neurotoxicity in 32 mA current-induced seizure albino CF1 mouse model at 100 mg/kg, ip measured after 2 hrs; type: toxicity, organism-based; parameters: dose 100 mg/kg, route intraperitoneal; settings: in vivo
Mus musculus [5] = assay: Neurotoxicity in albino CF1 mouse at 100 mg/kg, ip measured after 1 hr; type: toxicity, organism-based; parameters: dose 100 mg/kg, route intraperitoneal; settings: in vivo
Mus musculus [6] = assay: Anticonvulsant activity in albino CF1 mouse assessed as protection against maximal electroshock-induced seizures at 100 mg/kg, ip measured after 0.25 hr; type: functional, organism-based; parameters: dose 100 mg/kg
Mus musculus [7] = assay: Anticonvulsant activity in albino CF1 mouse assessed as protection against 32 mA current-induced seizures at 100 mg/kg, ip measured after 4 hrs; type: functional, organism-based; parameters: dose 100 mg/kg
Mus musculus [8] = assay: Neurotoxicity in albino CF1 mouse at 100 mg/kg, ip measured after 4 hrs; type: toxicity, organism-based; parameters: dose 100 mg/kg, route intraperitoneal; settings: in vivo
Mus musculus [9] = assay: Anticonvulsant activity in albino CF1 mouse assessed as protection against 32 mA current-induced seizures at 100 mg/kg, ip measured after 1 hr; type: functional, organism-based; parameters: dose 100 mg/kg
Mus musculus [10] = assay: Anticonvulsant activity in albino CF1 mouse assessed as protection against subcutaneous metrazol-induced seizures at 100 mg/kg, ip measured after 0.5 hr; type: functional, organism-based; parameters: dose 100 mg/kg
Mus musculus [11] = assay: Anticonvulsant activity in albino CF1 mouse assessed as protection against maximal electroshock-induced seizures at 100 mg/kg, ip measured after 0.5 hr; type: functional, organism-based; parameters: dose 100 mg/kg
Mus musculus [12] = assay: Anticonvulsant activity in albino CF1 mouse assessed as protection against subcutaneous metrazol-induced seizures at 100 mg/kg, ip measured after 4 hrs; type: functional, organism-based; parameters: dose 100 mg/kg
Mus musculus [13] = assay: Anticonvulsant activity in albino CF1 mouse assessed as protection against maximal electroshock-induced seizures at 100 mg/kg, ip measured after 4 hrs; type: functional, organism-based; parameters: dose 100 mg/kg
Mus musculus [14] = assay: Anticonvulsant activity in albino CF1 mouse assessed as protection against subcutaneous metrazol-induced seizures at 100 mg/kg, ip measured after 1 hr; type: functional, organism-based; parameters: dose 100 mg/kg
Mus musculus [15] = assay: Neurotoxicity in 32 mA current-induced seizure albino CF1 mouse model at 100 mg/kg, ip measured after 1 hr; type: toxicity, organism-based; parameters: dose 100 mg/kg, route intraperitoneal; settings: in vivo
Mus musculus [16] = assay: Anticonvulsant activity in albino CF1 mouse assessed as protection against maximal electroshock-induced seizures at 100 mg/kg, ip measured after 1 hr; type: functional, organism-based; parameters: dose 100 mg/kg
Mus musculus [17] = assay: Neurotoxicity in 32 mA current-induced seizure albino CF1 mouse model at 100 mg/kg, ip measured after 0.5 hr; type: toxicity, organism-based; parameters: dose 100 mg/kg, route intraperitoneal; settings: in vivo
Mus musculus [18] = assay: Anticonvulsant activity in albino CF1 mouse assessed as protection against 32 mA current-induced seizures at 100 mg/kg, ip measured after 2 hrs; type: functional, organism-based; parameters: dose 100 mg/kg
Mus musculus [19] = assay: Neurotoxicity in albino CF1 mouse at 100 mg/kg, ip measured after 0.5 hr; type: toxicity, organism-based; parameters: dose 100 mg/kg, route intraperitoneal; settings: in vivo
Mus musculus [20] = assay: Neurotoxicity in 32 mA current-induced seizure albino CF1 mouse model at 100 mg/kg, ip measured after 4 hrs; type: toxicity, organism-based; parameters: dose 100 mg/kg, route intraperitoneal; settings: in vivo
Mus musculus [21] = assay: Neurotoxicity in 32 mA current-induced seizure albino CF1 mouse model at 100 mg/kg, ip measured after 0.25 hr; type: toxicity, organism-based; parameters: dose 100 mg/kg, route intraperitoneal; settings: in vivo
Mus musculus [22] = assay: Anticonvulsant activity in albino CF1 mouse assessed as protection against 32 mA current-induced seizures at 100 mg/kg, ip measured after 0.25 hr; type: functional, organism-based; parameters: dose 100 mg/kg

O=C1NC(=O)[C@H](c2cccc(C(F)(F)F)c2)N2CCC[C@H]12
Activity (Mus musculus [1]): Non-toxic
Activity (Mus musculus [2]): inactive
Activity (Mus musculus [3]): inactive
Activity (Mus musculus [4]): Non-toxic
Activity (Mus musculus [5]): Non-toxic
Activity (Mus musculus [6]): inactive
Activity (Mus musculus [7]): inactive
Activity (Mus musculus [8]): Non-toxic
Activity (Mus musculus [9]): inactive
Activity (Mus musculus [10]): inactive
Activity (Mus musculus [11]): inactive
Activity (Mus musculus [12]): inactive
Activity (Mus musculus [13]): inactive
Activity (Mus musculus [14]): inactive
Activity (Mus musculus [15]): Non-toxic
Activity (Mus musculus [16]): inactive
Activity (Mus musculus [17]): Non-toxic
Activity (Mus musculus [18]): inactive
Activity (Mus musculus [19]): Non-toxic
Activity (Mus musculus [20]): Non-toxic
Activity (Mus musculus [21]): Non-toxic
Activity (Mus musculus [22]): inactive

O=C1NC(=O)[C@H](c2cccc(C(F)(F)F)c2)N2CCCC[C@H]12
Activity (Mus musculus [1]): Non-toxic
Activity (Mus musculus [2]): inactive
Activity (Mus musculus [5]): Non-toxic
Activity (Mus musculus [6]): inactive
Activity (Mus musculus [9]): inactive
Activity (Mus musculus [14]): inactive
Activity (Mus musculus [15]): Non-toxic
Activity (Mus musculus [16]): inactive
Activity (Mus musculus [21]): Non-toxic
Activity (Mus musculus [22]): inactive

O=C1NC(=O)[C@@H]2CCCN2[C@H]1c1cc(F)cc(F)c1
Activity (Mus musculus [1]): Non-toxic
Activity (Mus musculus [2]): Active
Activity (Mus musculus [3]): Active
Activity (Mus musculus [4]): Non-toxic
Activity (Mus musculus [5]): Non-toxic
Activity (Mus musculus [6]): Active
Activity (Mus musculus [7]): inactive
Activity (Mus musculus [8]): Non-toxic
Activity (Mus musculus [9]): inactive
Activity (Mus musculus [10]): Active
Activity (Mus musculus [11]): inactive
Activity (Mus musculus [12]): inactive
Activity (Mus musculus [13]): inactive
Activity (Mus musculus [14]): inactive
Activity (Mus musculus [15]): Non-toxic
Activity (Mus musculus [16]): inactive
Activity (Mus musculus [17]): Non-toxic
Activity (Mus musculus [18]): inactive
Activity (Mus musculus [19]): Non-toxic
Activity (Mus musculus [20]): Non-toxic
Activity (Mus musculus [21]): Non-toxic
Activity (Mus musculus [22]): Active

Cl.O=C1NC(=O)[C@@H](c2cccc(C(F)(F)F)c2)N2CCC[C@H]12
Activity (Mus musculus [1]): Non-toxic
Activity (Mus musculus [3]): Active
Activity (Mus musculus [4]): Non-toxic
Activity (Mus musculus [5]): Non-toxic
Activity (Mus musculus [6]): Active
Activity (Mus musculus [7]): inactive
Activity (Mus musculus [8]): Non-toxic
Activity (Mus musculus [9]): Active
Activity (Mus musculus [11]): inactive
Activity (Mus musculus [13]): inactive
Activity (Mus musculus [15]): Non-toxic
Activity (Mus musculus [16]): inactive
Activity (Mus musculus [17]): Non-toxic
Activity (Mus musculus [18]): inactive
Activity (Mus musculus [19]): Non-toxic
Activity (Mus musculus [20]): Non-toxic
Activity (Mus musculus [21]): Non-toxic
Activity (Mus musculus [22]): Active

O=C1NC(=O)[C@@H]2CCCN2[C@H]1c1ccccc1C(F)(F)F
Activity (Mus musculus [1]): Non-toxic
Activity (Mus musculus [2]): inactive
Activity (Mus musculus [3]): inactive
Activity (Mus musculus [4]): Non-toxic
Activity (Mus musculus [5]): Non-toxic
Activity (Mus musculus [6]): inactive
Activity (Mus musculus [7]): inactive
Activity (Mus musculus [8]): Non-toxic
Activity (Mus musculus [9]): inactive
Activity (Mus musculus [10]): inactive
Activity (Mus musculus [11]): inactive
Activity (Mus musculus [12]): inactive
Activity (Mus musculus [13]): inactive
Activity (Mus musculus [14]): inactive
Activity (Mus musculus [15]): Non-toxic
Activity (Mus musculus [16]): inactive
Activity (Mus musculus [17]): Non-toxic
Activity (Mus musculus [18]): inactive
Activity (Mus musculus [19]): Non-toxic
Activity (Mus musculus [20]): Non-toxic
Activity (Mus musculus [21]): Non-toxic
Activity (Mus musculus [22]): inactive

O=C1NC(=O)[C@@H](c2cccc(C(F)(F)F)c2)N2CCCC[C@@H]12
Activity (Mus musculus [1]): Non-toxic
Activity (Mus musculus [5]): Non-toxic
Activity (Mus musculus [6]): inactive
Activity (Mus musculus [9]): inactive
Activity (Mus musculus [15]): Non-toxic
Activity (Mus musculus [16]): inactive
Activity (Mus musculus [21]): Non-toxic
Activity (Mus musculus [22]): inactive

O=C1NC(=O)[C@@H]2CCCN2[C@H]1c1c(F)cccc1Cl (mixture of isomers)
Activity (Mus musculus [1]): Non-toxic
Activity (Mus musculus [2]): inactive
Activity (Mus musculus [3]): inactive
Activity (Mus musculus [4]): Non-toxic
Activity (Mus musculus [5]): Non-toxic
Activity (Mus musculus [6]): inactive
Activity (Mus musculus [7]): inactive
Activity (Mus musculus [8]): Non-toxic
Activity (Mus musculus [9]): inactive
Activity (Mus musculus [10]): inactive
Activity (Mus musculus [11]): inactive
Activity (Mus musculus [12]): inactive
Activity (Mus musculus [13]): inactive
Activity (Mus musculus [14]): inactive
Activity (Mus musculus [15]): Non-toxic
Activity (Mus musculus [16]): inactive
Activity (Mus musculus [17]): Non-toxic
Activity (Mus musculus [18]): inactive
Activity (Mus musculus [19]): Non-toxic
Activity (Mus musculus [20]): Non-toxic
Activity (Mus musculus [21]): Non-toxic
Activity (Mus musculus [22]): inactive

O=C1NC(=O)[C@@H]2CCCN2[C@H]1c1c(F)cccc1F (mixture of isomers)
Activity (Mus musculus [1]): Non-toxic
Activity (Mus musculus [2]): inactive
Activity (Mus musculus [3]): inactive
Activity (Mus musculus [4]): Non-toxic
Activity (Mus musculus [5]): Non-toxic
Activity (Mus musculus [6]): Active
Activity (Mus musculus [7]): inactive
Activity (Mus musculus [8]): Non-toxic
Activity (Mus musculus [9]): inactive
Activity (Mus musculus [10]): inactive
Activity (Mus musculus [11]): inactive
Activity (Mus musculus [12]): inactive
Activity (Mus musculus [13]): inactive
Activity (Mus musculus [14]): inactive
Activity (Mus musculus [15]): Non-toxic
Activity (Mus musculus [16]): inactive
Activity (Mus musculus [17]): Non-toxic
Activity (Mus musculus [18]): inactive
Activity (Mus musculus [19]): Non-toxic
Activity (Mus musculus [20]): Non-toxic
Activity (Mus musculus [21]): Non-toxic
Activity (Mus musculus [22]): Active
